# From patent US9499466B2, “Diene-based carboxylate anion and salt thereof, and polymerizable or curable composition thereof” (NIPPON SHOKUBAI CO., LTD., priority 2010, dated 2016)
# What was measured:
# [1] = Adhesion of cured material to PET film (cross-cut method, JIS K 5600-5-6); details: UV-cured film on surface-untreated PET film, cross-cut 10×10
# Procedure: Each compound shown in Table 11 was formed into a UV-cured film on a PET film in the same manner as in the pencil hardness test, except that the PET film used as a substrate was a surface-untreated polyethylene terephthalate (PET) film (Lumirror L-50T60, produced by Toray Industries, Inc.).
# The adhesion of the UV-cured film to the PET film was evaluated based on JIS K 5600-5-6 (cross-cut method). The number of divided segments was 10×10 segments=100 segments. The adhesion was evaluated by the number of the segments which remain without peeling or damage in 100 segments.
# [2] = Solubility test (film-forming method); details: solvent dropped on film on glass plate; Water
# Procedure: Each compound was applied on a glass plate and the glass plate was leaned against the wall. Each solvent shown in Table 5 was dropped (5 to 6 drops) on the glass plate with a pasteur pipette. The glass plate was visually observed after the dropped solvent was dried, the surface was optionally rubbed with a spatula, and the solubility (film-forming method) was evaluated according to the criteria shown in Table 4.
# [3] = Solubility test (dissolution method); details: for Solubility (dissolution method) Water: mixed at 1%, 3%, 5%, 10%, 20% or more
# Text: The solubility evaluation by the dissolution method requires complicated operations and a large amount of test sample. Therefore, this test is not suitable for screening. However, the solubility of each compound can be more accurately evaluated.
SMILES,Adhesion (segments remaining without peeling or damage in 100 segments) [1],Solubility (film-forming method) Water [2],Solubility (dissolution method) Acetone [3],Solubility (dissolution method) Acetonitrile [3],Solubility (dissolution method) Ethyl acetate [3],Solubility (dissolution method) Methanol [3],Solubility (dissolution method) THF [3],Solubility (dissolution method) Toluene [3],Solubility (dissolution method) Water [3]
C=CCOCC(=C)C(=O)[O-].C=CCOCC(=C)C(=O)[O-].[Zn+2] [Zn(AMA)2],100/100,X-Δ,,,,,,,
C=CCOCC(=C)C(=O)[O-].C=CCOCC(=C)C(=O)[O-].[O]=[Zr+2] [ZrO(AMA)2],100/100,,◯◯ (Become uniform and transparent at a compound concentration of 20% or more),◯◯ (Become uniform and transparent at a compound concentration of 20% or more),◯◯ (Become uniform and transparent at a compound concentration of 20% or more),◯◯ (Become uniform and transparent at a compound concentration of 20% or more),◯◯ (Become uniform and transparent at a compound concentration of 20% or more),◯◯ (Become uniform and transparent at a compound concentration of 20% or more),X (Not become uniform and transparent even at a compound concentration of 1%)
"C=CCOCC(=C)C(=O)OCC(C)(C)COC(=O)C(=C)COCC=C [NPG-AMA, neopentyl glycol di(α-allyloxymethyl acrylate), reference compound]",72/100,,◯◯ (Become uniform and transparent at a compound concentration of 20% or more),◯◯ (Become uniform and transparent at a compound concentration of 20% or more),◯◯ (Become uniform and transparent at a compound concentration of 20% or more),◯◯ (Become uniform and transparent at a compound concentration of 20% or more),◯◯ (Become uniform and transparent at a compound concentration of 20% or more),◯◯ (Become uniform and transparent at a compound concentration of 20% or more),X (Not become uniform and transparent even at a compound concentration of 1%)
"C=CC(=O)OCCOCCOC(=O)C=C [DEGDA, reference compound]",32/100,,◯◯ (Become uniform and transparent at a compound concentration of 20% or more),◯◯ (Become uniform and transparent at a compound concentration of 20% or more),◯◯ (Become uniform and transparent at a compound concentration of 20% or more),◯◯ (Become uniform and transparent at a compound concentration of 20% or more),◯◯ (Become uniform and transparent at a compound concentration of 20% or more),◯◯ (Become uniform and transparent at a compound concentration of 20% or more),X-Δ (Become uniform and transparent at a compound concentration of 1%)
